Results published in PubChem BioAssay (NCI).
Several values for one entry are separate records, joined by “and”; a condition that tells them apart may be missing. Equal entries are not always repeated.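 Where inhibition never reached the appropriate level, the endpoint shown equals the highest concentration tested. Otherwise, values were interpolated linearly from a five-concentration, 48-hour dose response in 96-well plates. The concentration for 50% growth inhibition is given as GI50. At the TGI there is no net growth.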

What was measured:
Assay in all cases: inhibition of tumour cell growth, NCI panel, 48 h
M19-MEL melanoma = system: M19-MEL melanoma
XF 498 CNS = system: XF 498 CNS
DMS 114 small cell lung = system: DMS 114 small cell lung
HOP-18 NSCLC = system: HOP-18 NSCLC
SNB-78 CNS = system: SNB-78 CNS
RXF-631 renal = system: RXF-631 renal
KM20L2 colon = system: KM20L2 colon
LXFL 529 NSCLC = system: LXFL 529 NSCLC
MDA-N = system: MDA-N

SMILES	TGI (M19-MEL melanoma)	TGI (XF 498 CNS)	TGI (DMS 114 small cell lung)	TGI (HOP-18 NSCLC)	TGI (SNB-78 CNS)	TGI (RXF-631 renal)	TGI (KM20L2 colon)	TGI (LXFL 529 NSCLC)	GI50 (MDA-N)	TGI (MDA-N)	GI50 (M19-MEL melanoma)	GI50 (XF 498 CNS)	GI50 (DMS 114 small cell lung)	GI50 (SNB-78 CNS)	GI50 (LXFL 529 NSCLC)
COc1ccccc1NC(=O)C1=C(C)NC(C)=C(C(=O)Nc2ccccc2OC)C1c1cccc2ccccc12	> 100 µM	> 100 µM	> 100 µM	> 100 µM	62.5 µM	> 100 µM	> 100 µM	> 100 µM	–	–	–	–	–	–	–
CCOC(=O)C(=O)Nc1ccccc1OCC	> 100 µM	> 100 µM	> 100 µM	> 100 µM	> 100 µM	–	–	> 100 µM	–	–	–	–	–	–	–
CC(C)C[CH2][Ge]([CH2]CC(C)C)([CH2]CC(C)C)[CH2]CC(C)C	–	–	–	–	–	–	–	–	> 100 µM	> 100 µM	–	–	–	–	–
O=C(Oc1ccc2c(-c3ccccc3)c(C(=O)Nc3ccc(Cl)cc3)c(=O)oc2c1)c1ccccc1	> 100 µM	> 100 µM	> 100 µM	> 100 µM	–	–	> 100 µM	–	–	–	–	–	–	–	–
Cc1cn([C@H]2C[C@H](O)[C@@H](CO)O2)c(=O)nc1N	–	–	–	–	–	–	–	–	–	> 100 µM	–	–	–	–	–
O=C1C(Br)=C(Br)C(=O)c2ccccc21	29.8 µM and 21.7 µM	29.7 µM and 9.41 µM	34.9 µM and 6.91 µM	35.5 µM	48.9 µM and 18.4 µM	20.1 µM	> 100 µM and 32.1 µM	34 µM and 11.7 µM	–	11.4 µM	16.1 µM and 6.98 µM	15.1 µM and 2.98 µM	17.6 µM and 1.91 µM	26.5 µM and 7.52 µM	19.2 µM and 5.82 µM
ClC1c2ccccc2C2(c3ccccc3)OOC1(c1ccccc1)O2 (stereo unspecified)	–	–	0.725 µM	–	3.19 µM	–	3.26 µM	–	–	–	–	–	–	–	–
O=C1CCCC(O)=C1SC1=C(O)CCCC1=O	> 100 µM	–	–	> 100 µM	> 100 µM	> 100 µM	–	–	–	–	–	–	–	–	–
O=C1/C(=C/c2ccc(Cl)c(Cl)c2)CNC/C1=C\c1ccc(Cl)c(Cl)c1	> 58.1 µM	35.9 µM	> 32.7 µM	> 91.9 µM	> 100 µM	> 100 µM	24.2 µM	12.2 µM	–	39.9 µM	–	–	–	–	–
CN(C)CCNC(=O)c1c2ccccc2cc2ccccc12	> 100 µM	44.8 µM	> 100 µM	> 100 µM	> 100 µM	–	> 100 µM	80.8 µM	–	–	–	–	–	–	–
Nc1c(C(=O)NC23CC4CC(CC(C4)C2)C3)[n+]([O-])c2ccccc2[n+]1[O-]	> 100 µM	> 100 µM	–	> 100 µM	> 100 µM	–	> 100 µM	> 100 µM	–	–	–	–	–	–	–
O=c1ccn(C2(CO)C=C(CO)C(O)C2O)c(=O)[nH]1 (stereo unspecified)	> 25.7 µM	–	> 25.7 µM	> 25.7 µM	> 25.7 µM	> 25.7 µM	> 25.7 µM	> 25.7 µM	–	–	–	–	–	–	–
CN(C)c1ccc2cc3ccc(N(C)C)cc3nc2c1	–	–	–	–	–	–	–	–	–	3.03 µM	–	–	–	–	–
CN1C(=O)CCC1c1ccc2c(c1)oc(=O)n2C (stereo unspecified)	> 100 µM	> 100 µM	> 100 µM	> 100 µM	> 100 µM	–	> 100 µM	> 100 µM	–	–	–	–	–	–	–
Oc1ccc2ccccc2c1N=Nc1ccc(Cl)cc1	–	–	–	–	–	–	–	–	–	> 100 µM	–	–	–	–	–
O=C1c2cccc3c(Cl)ccc(c23)C(=O)N1CCCN1CCN(CCCN2C(=O)c3cccc4c(Cl)ccc(c34)C2=O)CC1	–	> 100 µM	> 100 µM	> 100 µM	> 100 µM	> 100 µM	> 100 µM	> 100 µM	–	–	–	–	–	–	–
O=S1c2ccccc2NC(c2ccc3ccccc3c2)CC1c1ccccc1 (stereo unspecified)	43.3 µM	52.8 µM	–	> 100 µM	–	–	48.9 µM	30.5 µM	–	–	–	–	–	–	–
CCCC(C)c1c(Cl)nc(Cl)nc1Cl (stereo unspecified)	–	–	–	–	–	–	–	–	–	21 µM	–	–	–	–	–
COC1C(CO)OC(n2c3c(Cl)cccc3c3c4c(c5c6cccc(Cl)c6[nH]c5c32)C(=O)NC4=O)C(O)C1O (stereo unspecified)	0.898 µM	0.931 µM	> 100 µM	–	> 100 µM	84.3 µM	> 100 µM	> 100 µM	–	3.15 µM	–	–	–	–	–
COc1ccc(OC(C)C(=O)O)c2c1CCCC2=O (stereo unspecified)	> 100 µM	> 100 µM	> 100 µM	–	> 100 µM	–	> 100 µM	> 100 µM	–	–	–	–	–	–	–
OCC(O)COc1c(Cl)cc(Cl)cc1Cl (stereo unspecified)	> 100 µM	> 100 µM	> 100 µM	> 100 µM	> 100 µM	> 100 µM	> 100 µM	> 100 µM	–	–	–	–	–	–	–
Cc1cccc(C(C)C)c1NC(=O)CCl	> 100 µM	–	50 µM	> 100 µM	> 100 µM	–	> 100 µM	> 100 µM	–	–	–	–	–	–	–
C=C1CCC2C(C)(CO)C(O)CCC2(C)C1C/C=C1/CCOC1=O (stereo unspecified)	> 100 µM	–	–	> 100 µM	–	–	> 100 µM	> 100 µM	–	–	–	–	–	–	–
CC(C)CN1CC(C)C(=O)NC1=O (stereo unspecified)	> 100 µM	> 100 µM	> 100 µM	–	> 100 µM	–	> 100 µM	> 100 µM	–	–	–	–	–	–	–
CCOc1cc2c(=O)oc3c(OC)ccc4ccc(c1OC)c2c43	–	–	–	–	–	–	–	–	–	> 100 µM	–	–	–	–	–
CCC(C)c1cccc(C)c1NC(=O)C(=O)Cc1nc2ccccc2s1 (stereo unspecified)	> 100 µM	> 100 µM	> 100 µM	> 100 µM	> 100 µM	–	> 100 µM	> 100 µM	–	–	–	–	–	–	–
Cc1ccc(/C=C/C(=O)c2ccc([N+](=O)[O-])cc2)cc1	> 100 µM	> 100 µM	–	> 100 µM	> 100 µM	> 100 µM	> 100 µM	> 100 µM	–	–	–	–	–	–	–
CN(C)C(=S)/N=c1\ss/c(=N\C(=S)N(C)C)n1Cc1ccco1	> 100 µM	–	> 100 µM	> 100 µM	> 100 µM	–	> 100 µM	> 100 µM	–	–	–	–	–	–	–
O=C1CCNC(=O)NC1	> 100 µM	> 100 µM	> 100 µM	> 100 µM	> 100 µM	> 100 µM	> 100 µM	> 100 µM	–	–	–	–	–	–	–
NC(CCc1ncc(-c2ccccc2)s1)C(=O)O (stereo unspecified)	–	–	> 100 µM	> 100 µM	> 100 µM	> 100 µM	–	> 100 µM	–	–	–	–	–	–	–
